Measured values taken from patent US20090239949A1, “Polar Hydrophilic Prodrugs of Amphetamine and Other Stimulants and Processes for Making and Using the Same” (priority 2007, published 2009).

Assays:
[1] = Oral pharmacokinetic study of Cit-Amp vs Lys-Amp (Example 13); conditions: for % Tmax: relative to Lys-Amp
[2] = Intranasal pharmacokinetic study of d-amphetamine, hArg-Amp and Lys-Amp (Example 15); conditions: for % Tmax: relative to d-amp
[3] = Intravenous pharmacokinetic study of d-amphetamine, hArg-Amp and Lys-Amp (Example 16); conditions: for % Tmax: relative to d-amp
[4] = Oral pharmacokinetic study of Lys-Amp, Sar-Amp, hCit-Amp and hArg(NO2)-Amp (Example 14); conditions: for Cmax: plasma d-amphetamine, n=5
[5] = Pharmacokinetics of d-amphetamine after parenteral (intranasal, intravenous) administration of hArg-Amp (Example 1); conditions: parental routes (intranasal, intravenous)
[6] = Average results of oral pharmacokinetic studies of hArg-Amp vs Lys-Amp (Table 3); conditions: relative to Lys-Amp
[7] = Oral pharmacokinetic study of hArg-Amp vs Lys-Amp, plasma d-amphetamine by ELISA (Example 12); conditions: relative to Lys-Amp

C[C@@H](Cc1ccccc1)NC(=O)[C@@H](N)CCCNC(N)=O.Cl [Cit-Amp, 1-citrulline-d-amphetamine hydrochloride]
% Tmax [1]: 25%

C[C@H](N)Cc1ccccc1 [d-amp, d-amphetamine]
% Tmax ([2]; intranasal): 100% | Tmax ([2]; male, Sprague-Dawley, rat, in vivo, inhaled or intranasal, […]): 5 min | % Tmax ([3]; intravenous): 100% | Tmax ([3]; male, Sprague-Dawley, rat, in vivo, iv, […]): 5 min

C[C@@H](Cc1ccccc1)NC(=O)[C@@H](N)CCCCNC(N)=N[N+](=O)[O-] [hArg(NO2)-Amp, l-homoarginine(NO2)-d-amphetamine]
Cmax [4]: 59 ng/mL

C[C@@H](Cc1ccccc1)NC(=O)[C@@H](N)CCCCN=C(N)N.Cl.Cl [hArg-Amp, l-homoarginine-d-amphetamine dihydrochloride]
release of amphetamine [5]: < 25% | Tmax ([2]; intranasal, plasma d-amphetamine): 30 min | % Tmax ([2]; intranasal): 600% | Tmax ([3]; intravenous, plasma d-amphetamine): 5 m | % Tmax ([3]; intravenous): 100% | % Tmax [6]: 200-400%

l-homocitrulline-d-amphetamine hydrochloride [hCit-Amp]
Cmax [4]: 57 ng/mL

l-lysine-d-amphetamine [Lys-Amp]
Cmax [4]: 54 ng/mL | % Tmax ([4]; relative to Lys-Amp): 100% | Cmax ([1]; plasma d-amphetamine, n=5): 59 ng/mL | % Tmax [1]: 100% | % Tmax ([2]; intranasal): 3600% | % Tmax [7]: 100% | % Tmax ([3]; intravenous): 100% | % Tmax [6]: 100%

sarcosine-d-amphetamine [Sar-Amp]
Cmax [4]: 45 ng/mL
